Experimental data: patent EP0640341A1, “Sustained release pharmaceutical composition and process for producing same” (priority 1993, dated 1995)

Assays:
[1] = Solubility in Japanese pharmacopoeia test liquids; format: physicochemical
Text: For example, the above pyrimidinedione derivative is a basic drug, and has general characteristics that it is easily soluble on an acid side of a pH but very little soluble on a neutral side or an alkaline side. That is to say, in the digestive organs, the pyrimidinedione derivative is easily dissolved and released in the stomach owing to an acid therein, but the dissolution and the release of the pyrimidinedione derivative deteriorate in the intestines because the intestines are a neutral or an alkaline state. Furthermore, the deterioration of the solubility of the pyrimidinedione derivative with the increase of the pH is remarkable.

[2] = Oral administration test of the drug, concentration in blood
Text: For example, in Example 18 of Japanese Patent Application Laid-open No. 173873/1991, the pyrimidinedione derivative is sufficiently mixed with lactose and starch, and the resultant mixture is then filled into capsules to manufacture the desired drug. The present inventors actually carried out an oral administration test for the drug.

- solubility ([1]; jp test liquid no. 1, Japanese pharmacopoeia test liquid No. 1 (pH = 1.2)): ≥ 1000 mg/mL
- solubility ([1]; jp test liquid no. 2, Japanese pharmacopoeia test liquid No. 2 (pH = 6.8)): ≤ 0.1 mg/mL
- Tmax [2]: ≤ 30 min
Structure (SMILES): Cn1c(NCCN(CCO)CCCc2ccc([N+](=O)[O-])cc2)cc(=O)n(C)c1=O [the pyrimidinedione derivative, 1,3-dimethyl-6-{2-{N-(2-hydroxyethyl)-N-[3-(4-nitrophenyl)propyl]amino}ethylamino}-2,4-(1H,3H)-pyrimidinedione]
